Article PMC11347070 (Current Research in Toxicology, 2024)

Legend:
[1] = tested on: zebrafish embryos and larvae; conditions: exposed to 500 µM ECA; 120 hpf
[2] = ref FDA, KEPPRA® (levetiracetam), n.d.; cited from earlier work
[3] = tested on: zebrafish embryos and larvae; experiment: Zebrafish embryo developmental toxicity assay; conditions: for BA heart / Coagulation/dead / Curved fin left / Curved fin right / Curved tail / Edema head / Edema pericard / Edema yolk / No hatching / Tissue deviation tail / Tot. malformed (excl. dead) / Tot. malformed (incl. dead) / Deviation eye / Elbow tail: 120 hpf

CCC(C(=O)O)N1CCCC1=O (stereo not drawn) [ECA, etiracetam carboxylic acid]
concentration of ECA in larvae [1]: no concentrations above the LOD could be detected
uptake of ECA [1]: no uptake of ECA could be observed
human metabolite of LTC, share of the administered dose [2]: 24 % of the administered dose
BA heart ([3]; ECA 1 µM, replicate 1): 0/20
Coagulation/dead ([3]; ECA 1 µM, replicate 1): 0/20
Curved fin left ([3]; ECA 1 µM, replicate 1): 0/20
Curved fin right ([3]; ECA 1 µM, replicate 1): 0/20
Curved tail ([3]; ECA 1 µM, replicate 1): 0/20
Edema head ([3]; ECA 1 µM, replicate 1): 0/20
Edema pericard ([3]; ECA 1 µM, replicate 1): 0/20
Edema yolk ([3]; ECA 1 µM, replicate 1): 0/20
No hatching ([3]; ECA 1 µM, replicate 1): 0/20
Tissue deviation tail ([3]; ECA 1 µM, replicate 1): 0/20
Tot. malformed (excl. dead) ([3]; ECA 1 µM, replicate 1): 0/20
Tot. malformed (incl. dead) ([3]; ECA 1 µM, replicate 1): 0/20
BA heart ([3]; ECA 1 µM, replicate 2): 0/19
Coagulation/dead ([3]; ECA 1 µM, replicate 2): 1/20
Curved fin left ([3]; ECA 1 µM, replicate 2): 0/19
Curved fin right ([3]; ECA 1 µM, replicate 2): 0/19
Curved tail ([3]; ECA 1 µM, replicate 2): 0/19
Edema head ([3]; ECA 1 µM, replicate 2): 0/19
Edema pericard ([3]; ECA 1 µM, replicate 2): 0/19
Edema yolk ([3]; ECA 1 µM, replicate 2): 0/19
No hatching ([3]; ECA 1 µM, replicate 2): 0/19
Tissue deviation tail ([3]; ECA 1 µM, replicate 2): 0/19
Tot. malformed (excl. dead) ([3]; ECA 1 µM, replicate 2): 0/19
Tot. malformed (incl. dead) ([3]; ECA 1 µM, replicate 2): 1/20
BA heart ([3]; ECA 10 µM, replicate 1): 0/18
Coagulation/dead ([3]; ECA 10 µM, replicate 1): 2/20
Curved fin left ([3]; ECA 10 µM, replicate 1): 0/18
Curved fin right ([3]; ECA 10 µM, replicate 1): 0/18
Curved tail ([3]; ECA 10 µM, replicate 1): 2/18
Edema head ([3]; ECA 10 µM, replicate 1): 0/18
Edema pericard ([3]; ECA 10 µM, replicate 1): 0/18
Edema yolk ([3]; ECA 10 µM, replicate 1): 0/18
No hatching ([3]; ECA 10 µM, replicate 1): 1/18
Tissue deviation tail ([3]; ECA 10 µM, replicate 1): 0/18
Tot. malformed (excl. dead) ([3]; ECA 10 µM, replicate 1): 2/18
Tot. malformed (incl. dead) ([3]; ECA 10 µM, replicate 1): 4/20
BA heart ([3]; ECA 10 µM, replicate 2): 0/20
Coagulation/dead ([3]; ECA 10 µM, replicate 2): 0/20
Curved fin left ([3]; ECA 10 µM, replicate 2): 0/20
Curved fin right ([3]; ECA 10 µM, replicate 2): 0/20
Curved tail ([3]; ECA 10 µM, replicate 2): 1/20
Edema head ([3]; ECA 10 µM, replicate 2): 0/20
Edema pericard ([3]; ECA 10 µM, replicate 2): 0/20
Edema yolk ([3]; ECA 10 µM, replicate 2): 0/20
No hatching ([3]; ECA 10 µM, replicate 2): 0/20
Tissue deviation tail ([3]; ECA 10 µM, replicate 2): 0/20
Tot. malformed (excl. dead) ([3]; ECA 10 µM, replicate 2): 1/20
Tot. malformed (incl. dead) ([3]; ECA 10 µM, replicate 2): 1/20
BA heart ([3]; ECA 100 µM, replicate 1): 0/18
Coagulation/dead ([3]; ECA 100 µM, replicate 1): 2/20
Curved fin left ([3]; ECA 100 µM, replicate 1): 0/18
Curved fin right ([3]; ECA 100 µM, replicate 1): 0/18
Curved tail ([3]; ECA 100 µM, replicate 1): 0/18
Edema head ([3]; ECA 100 µM, replicate 1): 0/18
Edema pericard ([3]; ECA 100 µM, replicate 1): 1/18
Edema yolk ([3]; ECA 100 µM, replicate 1): 0/18
No hatching ([3]; ECA 100 µM, replicate 1): 0/18
Tissue deviation tail ([3]; ECA 100 µM, replicate 1): 1/18
Tot. malformed (excl. dead) ([3]; ECA 100 µM, replicate 1): 1/18
Tot. malformed (incl. dead) ([3]; ECA 100 µM, replicate 1): 3/20
BA heart ([3]; ECA 100 µM, replicate 2): 1/20
Coagulation/dead ([3]; ECA 100 µM, replicate 2): 0/20
Curved fin left ([3]; ECA 100 µM, replicate 2): 1/20
Curved fin right ([3]; ECA 100 µM, replicate 2): 1/20
Curved tail ([3]; ECA 100 µM, replicate 2): 1/20
Edema head ([3]; ECA 100 µM, replicate 2): 1/20
Edema pericard ([3]; ECA 100 µM, replicate 2): 2/20
Edema yolk ([3]; ECA 100 µM, replicate 2): 1/20
No hatching ([3]; ECA 100 µM, replicate 2): 0/20
Tissue deviation tail ([3]; ECA 100 µM, replicate 2): 1/20
Tot. malformed (excl. dead) ([3]; ECA 100 µM, replicate 2): 2/20
Tot. malformed (incl. dead) ([3]; ECA 100 µM, replicate 2): 2/20
Coagulation/dead ([3]; ECA 250 µM, replicate 1): 0/20
Curved tail ([3]; ECA 250 µM, replicate 1): 0/20
Deviation eye ([3]; ECA 250 µM, replicate 1): 0/20
Elbow tail ([3]; ECA 250 µM, replicate 1): 1/20
Tissue deviation tail ([3]; ECA 250 µM, replicate 1): 1/20
Tot. malformed (excl. dead) ([3]; ECA 250 µM, replicate 1): 2/20
Tot. malformed (incl. dead) ([3]; ECA 250 µM, replicate 1): 2/20
Coagulation/dead ([3]; ECA 250 µM, replicate 2): 0/20
Curved tail ([3]; ECA 250 µM, replicate 2): 0/20
Deviation eye ([3]; ECA 250 µM, replicate 2): 0/20
Elbow tail ([3]; ECA 250 µM, replicate 2): 0/20
Tissue deviation tail ([3]; ECA 250 µM, replicate 2): 0/20
Tot. malformed (excl. dead) ([3]; ECA 250 µM, replicate 2): 0/20
Tot. malformed (incl. dead) ([3]; ECA 250 µM, replicate 2): 0/20
Coagulation/dead ([3]; ECA 500 µM, replicate 1): 0/20
Curved tail ([3]; ECA 500 µM, replicate 1): 1/20
Deviation eye ([3]; ECA 500 µM, replicate 1): 1/20
Elbow tail ([3]; ECA 500 µM, replicate 1): 0/20
Tissue deviation tail ([3]; ECA 500 µM, replicate 1): 1/20
Tot. malformed (excl. dead) ([3]; ECA 500 µM, replicate 1): 2/20
Tot. malformed (incl. dead) ([3]; ECA 500 µM, replicate 1): 2/20
Coagulation/dead ([3]; ECA 500 µM, replicate 2): 0/20
Curved tail ([3]; ECA 500 µM, replicate 2): 0/20
Deviation eye ([3]; ECA 500 µM, replicate 2): 0/20
Elbow tail ([3]; ECA 500 µM, replicate 2): 0/20
Tissue deviation tail ([3]; ECA 500 µM, replicate 2): 1/20
Tot. malformed (excl. dead) ([3]; ECA 500 µM, replicate 2): 1/20
Tot. malformed (incl. dead) ([3]; ECA 500 µM, replicate 2): 1/20
differences between test groups and embryo medium control group ([3]; all test concentrations, 24 to 120 hpf, Fisher Exact test): no statistically significant differences
teratogenicity in zebrafish larvae ([3]; concentrations up to 10,000 µM LTC and 500 µM ECA, likely due to limited uptake or lack of uptake): non-teratogenic
